Measurements taken from PMC2694132 (Cancer research, 2009).

Columns and labels:
[1] = target: T1, UGT1A8*3 (UGT1A8p.Cys277Tyr) (Homo sapiens, UniProt Q9HAW9, C277Y); assay: Glucuronidation, UGT1A8*3 variant cell homogenate; assay type: in vitro ADME; conditions: data not shown
T1 sequence (Q9HAW9 26-530 C277Y): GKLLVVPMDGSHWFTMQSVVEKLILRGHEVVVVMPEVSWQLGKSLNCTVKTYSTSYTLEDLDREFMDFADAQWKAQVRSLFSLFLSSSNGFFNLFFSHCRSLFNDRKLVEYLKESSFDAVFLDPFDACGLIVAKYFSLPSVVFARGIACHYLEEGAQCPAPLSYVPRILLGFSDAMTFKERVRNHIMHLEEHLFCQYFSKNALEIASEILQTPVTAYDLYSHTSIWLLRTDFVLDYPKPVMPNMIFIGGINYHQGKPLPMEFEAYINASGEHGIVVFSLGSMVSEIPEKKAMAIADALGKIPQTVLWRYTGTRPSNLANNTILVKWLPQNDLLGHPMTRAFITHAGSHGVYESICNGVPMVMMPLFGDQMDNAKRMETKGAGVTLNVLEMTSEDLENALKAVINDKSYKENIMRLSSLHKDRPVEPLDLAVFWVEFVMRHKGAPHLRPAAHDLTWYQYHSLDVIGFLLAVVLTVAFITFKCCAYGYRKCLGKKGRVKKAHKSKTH

[2] = cited from earlier work; for apparent terminal half-life: patients treated with SAHA; for serum level relative to the parent compound (higher, on average): serum from patients treated with SAHA

Row | glucuronidation activity against 4-methylumbelliferone [1] | SMILES | apparent terminal half-life [2] | serum level relative to the parent compound (higher, on average) [2]
1 | detectable levels of activity | Cc1cc(=O)oc2cc(O)ccc12 [4-methylumbellifer-one] |  | 
2 |  | O=C(O)CCC(=O)Nc1ccccc1 [4-anilino-4-oxobutanoic acid] | 6 to 9 h | 10- to 13 fold
3 |  | O=C(CCCCCCC(=O)Nc1ccccc1)NO[C@@H]1O[C@H](C(=O)O)[C@@H](O)[C@H](O)[C@H]1O [SAHA-glucuronide] | ~ 1.8 hours | 3- to 4 fold
